Like-named read-outs stand apart in the source and are kept apart here.
Columns and labels:
[1] = system: P388 murine leukemic cells; experiment: Growth inhibition of exponentially growing P388 cells; type: cell-based; details: Mus musculus
Description: Thus, NABV is ideal for probing intracellular Vinca alkaloid interactions because it retains the known biochemical and pharmacological properties of this class of drugs.

[2] = system: P388 leukemic cells; experiment: Ultrastructural alterations in P388 cells; type: cell-based, murine
[3] = system: MCF-7 human breast tumor cells; experiment: Ultrastructural alterations in MCF-7 cells; type: cell-based
[4] = system: microtubule; experiment: In vitro microtubule assembly; type: biochemical; details: both drugs at similar concentrations
[5] = system: tubulin; experiment: Tubulin aggregation; type: biochemical; details: both drugs at similar concentrations
[6] = system: tubulin; experiment: Tubulin-dependent GTP hydrolysis; type: biochemical; details: both drugs at similar concentrations
[7] = system: calf brain macromolecular components; experiment: Control irradiation of calf brain homogenate with ^3 H-vinblastine; type: binding; details: standard photolabelling conditions; 50 nM ^3 H-vinblastine
Method: The standard photolabelling mixture used contained 50 nM ^3 H-NABV (50.6 Ci/mmol), 4% dimethylsulfoxide, […] potassium phosphate buffer, pH 7.0, and 2 mg/ml of tissue homogenate or high speed pellet or supernatant fractions in a final volume of 0.05 ml in polyvinylchloride V-microtiter wells (Dynatech Labs, Inc., Alexandria, VA) in a 25° C. water bath. Photolabelling mixtures were incubated for 15 minutes at 25° C. before photolysis. Photoactivation was performed for 10-20 minutes with a UV light equipped with two 15 W self-filtering 302 nm lamps (Model xx-15, Ultra-Violet Products, Inc., San Gabriel, CA), placed 3.4 cm above the photolabelling mixture. […] In a control experiment, brain homogenate was irradiated in the presence of 50 nM ^3 H-vinblastine (10.7 Ci/mmol; Amersham Corp., Arlington Heights, IL). Photoactivated samples were immediately processed for SDS-PAGE or frozen at -70° C.
When homogenate was incubated with ^3 H-NABV in the absence of UV light for 30 minutes, no radioactivity was found in subsequent SDS-PAGE gel slices above the ambient background level, except for excess 3H-NABV which migrated near the tracking dye front. Similar results were obtained after photoactivating ^3 H-NABV in the absence of brain homogenate which was then added prior to performing SDS-PAGE and gel slice analysis.

[8] = system: 150-180 kDa surface membrane glycoprotein (gp150-180); experiment: Photoaffinity labelling of cell particulate fractions / plasma membranes with ^3 H-NABV, competition by vinblastine; type: binding, Chinese hamster
Method: Cell lines were cultured as described by Peterson et al., Cancer Res. 43, 222-228 (1983) and by Meyers et al., J. Cell. Biol. 100, 588-597 (1985). Vincristine-resistant (DC-3F/VCRd-5L, 2750-fold resistant) and actinomycin D-resistant (DC=3F/ADX, 2450-fold resistant) variants were selected from Chinese hamster lung (DC-3F) cells as described in the above-cited articles. The drug-sensitive revertant (DC-3F/ADX-U, 30-fold resistant to actinomycin D) was obtained from DC-3F/ADX cells grown in the absence of drugs. The resistant cells expressed a typical multidrug-resistant phenotype as typified by cross-resistance to a number of unrelated natural product compounds. Whole cell particulate fractions were prepared by the sonication of drug-sensitive or drug-resistant cells in 50 mM potassium phosphate buffer (pH 7.4), followed by centrifugation at 100,000×g for one hour. […] Protein concentrations were determined by the procedure of Lowry et al., J. Biol. Chem., 193, 265-275 (1951).
Photolabelling of membrane samples (50 micrograms protein) was performed in 40 nM potassium phosphate buffer (pH 7.0) containing 4% Me2 SO and 50 nM of either ^3 H-NABV (0.1 microCi) or ^125 I-NASV (0.2 microCi) in a final volume of 0.050 ml. […] The quantitation of radiolabelling was accomplished by cutting appropriate areas from the gel and counting the pieces in a gamma counter. […]

[9] = system: 150-180 kDa surface membrane glycoprotein (gp150-180); experiment: Photoaffinity labelling of purified plasma membranes with ^125 I-NASV; type: binding, Chinese hamster; details: ^125 I-NASV, 10 micromoles vinblastine
Method: Cell lines were cultured as described by Peterson et al., Cancer Res. 43, 222-228 (1983) and by Meyers et al., J. Cell. Biol. 100, 588-597 (1985). Vincristine-resistant (DC-3F/VCRd-5L, 2750-fold resistant) and actinomycin D-resistant (DC=3F/ADX, 2450-fold resistant) variants were selected from Chinese hamster lung (DC-3F) cells as described in the above-cited articles. The drug-sensitive revertant (DC-3F/ADX-U, 30-fold resistant to actinomycin D) was obtained from DC-3F/ADX cells grown in the absence of drugs. The resistant cells expressed a typical multidrug-resistant phenotype as typified by cross-resistance to a number of unrelated natural product compounds. Whole cell particulate fractions were prepared by the sonication of drug-sensitive or drug-resistant cells in 50 mM potassium phosphate buffer (pH 7.4), followed by centrifugation at 100,000×g for one hour. The particulate pellet was washed by resuspending in the same buffer, and the whole cell particulate fraction was obtained by a second centrifugation. Purified plasma membranes were prepared by sucrose density gradient centrifugation as described in Peterson et al in J. Supramolecular Structure 9, 289-298 (1978). Protein concentrations were determined by the procedure of Lowry et al., J. Biol. Chem., 193, 265-275 (1951).
Photolabelling of membrane samples (50 micrograms protein) was performed in 40 nM potassium phosphate buffer (pH 7.0) containing 4% Me2 SO and 50 nM of either ^3 H-NABV (0.1 microCi) or ^125 I-NASV (0.2 microCi) in a final volume of 0.050 ml. […] SDS-PAGE of 5-15% gradient gels containing 4.5 M urea, fluorography, and autoradiography were performed as described by Felsted et al. in Blood 66, 606-613 (1985). The quantitation of radiolabelling was accomplished by cutting appropriate areas from the gel and counting the pieces in a gamma counter.
A plasma membrane localization for the 150-180 kDa component was established by photoaffinity labelling sucrose density gradient purified plasma membranes from drug-sensitive and drug-resistant cells with ^3 H-NABV. […] These membranes, as well as membranes from another multidrug-resistant variant (DC-3F/ADX) originally selected for resistance to actinomycin D and from a revertant (DC-3F/ADX-U) obtained from the DC-3F/ADX variant were also photoaffinity labelled with ^125 I-NASV. […] In contrast, radiolabelling of the 150-180 kDa component in the DC-3F/ADX-U revertant cells was increased by only about 15-fold. […] In other studies, a number of drug-sensitive cell lines have been shown by immunoblottings to have barely detectable levels of analogous 150-180 kDa surface membrane glycoproteins compared to the corresponding multidrug-resistant variants. […]

[10] = system: 150-180 kDa surface membrane glycoprotein (gp150-180); experiment: Immunoprecipitation of ^125 I-NASV photolabelled, detergent solubilized membranes with antibody specific for gp150-180; type: binding, Chinese hamster; details: DC-3F/VCRd-5L membranes, vinblastine
Method: Immunoprecipitations were performed by extracting membranes (20 micrograms protein) for fifteen minutes at 4° C. with 100 microliters of 50 mM Tris-HCl buffer (pH 7.0) containing 150 mM NaCl, 1% Triton X-100, 1% sodium deoxycholate, 0.1% SDS, 1 mM ethylenediamine tetraacetic acid, 1 mM phenylmethylsulfonylfluoride, and 10 mg/ml Trayslol (Boehringer Mannheim, Indianapolis, IN). The mixtures were then incubated for one hour at 5° C. with 10 microliters rabbit polyclonal antibody specific for multidrug-resistant 150-180 kDa surface membrane glycoprotein (gp150-180).Immune complexe were obtained by incubating the mixture with Protein A-Sepharose (Pharmacia, Piscataway, NJ) for one hour at 5° C. and recovering the beads after washing four times. […]
Photolabelling of membrane samples (50 micrograms protein) was performed in 40 nM potassium phosphate buffer (pH 7.0) containing 4% Me2 SO and 50 nM of either ^3 H-NABV (0.1 microCi) or ^125 I-NASV (0.2 microCi) in a final volume of 0.050 ml. […] The quantitation of radiolabelling was accomplished by cutting appropriate areas from the gel and counting the pieces in a gamma counter.
The radiolabelled 150-180 kDa polypeptide was immunoprecipitated only from membrane extracts of drug-resistant cells. No radioactivity was precipitated when nonimmune serum was used in place of the specific antibody. […]

`CCC1(O)CC2CN(CCc3c([nH]c4ccccc34)C(C(=O)OC)(c3cc4c(cc3OC)N(C)C3C(O)(C(=O)NCCNC(=O)c5ccc(N=[N+]=[N-])cc5)C(O)C5(CC)C=CCN6CCC43C65)C2)C1` (stereo not drawn) [NABV, N-(p-azidobenzoyl)-N'-beta-aminoethylvindesine] was tested, and the IC50 ([1]; P388, 72 h) was 1.1 nM, the “ultrastructural alterations (microtubular paracrystals, mitotic arrest, multinucleated cells)” value [2] was “resembles those caused by vinblastine” and the “ultrastructural alterations (microtubular paracrystals, mitotic arrest, multinucleated cells)” value [3] was “resembles those caused by vinblastine”. The “effect on in vitro microtubule assembly” value [4] was “inhibit in vitro microtubule assembly”, the “effect on tubulin aggregation” value [5] was “induce tubulin aggregation” and the “effect on tubulin-dependent GTP hydrolysis” value [6] was “inhibit tubulin-dependent GTP hydrolysis”.
For `CC[C@]1(O)C[C@@H]2CN(CCc3c([nH]c4ccccc34)[C@@](C(=O)OC)(c3cc4c(cc3OC)N(C)[C@H]3[C@@](O)(C(=O)OC)[C@H](OC(C)=O)[C@]5(CC)C=CCN6CC[C@]43[C@@H]65)C2)C1` [^3 H-vinblastine], the “radiolabel incorporation into calf brain macromolecular components” value [7] was “no radiolabel incorporation”.
In the case of `CC[C@]1(O)C[C@@H]2CN(CCc3c([nH]c4ccccc34)[C@@](C(=O)OC)(c3cc4c(cc3OC)N(C)[C@H]3[C@@](O)(C(=O)OC)[C@H](OC(C)=O)[C@]5(CC)C=CCN6CC[C@]43[C@@H]65)C2)C1` [vinblastine], the “reduction of radiolabelling of the 150-180 kDa component” value ([8]; sucrose density gradient purified plasma membranes, 10 micromole vinblastine) is reported as 59%, the “radiolabelling of the 150-180 kDa component in the presence of vinblastine” value ([8]; whole cell particulate fractions, DC-3F/VCRd-5L, 10 micromoles vinblastine) is reported as “substantially reduced” and the “reduction of radiolabelling of the 150-180 kDa component” value ([9]; drug-resistant variants) is reported as 80-90%. For the same compound, the “radiolabelling of the 150-180 kDa component in the presence of vinblastine” value ([9]; parental and revertant cells) was “completely absent”, the “reduction of radiolabel in the immunoprecipitate” value [10] was 96% and the IC50 ([1]; 72 hours exposure, exponentially growing P388 cells, read-out: IC50) was 0.6 nM. For the same compound, the “effect on in vitro microtubule assembly” value [4] was “inhibit in vitro microtubule assembly”, the “effect on tubulin aggregation” value [5] was “induce tubulin aggregation” and the “effect on tubulin-dependent GTP hydrolysis” value [6] was “inhibit tubulin-dependent GTP hydrolysis”.

From patent US4765972A (priority 1986, dated 1988)
